{
  "source": "patent US12473594B2",
  "about": "“Chemical tagging-based method for modified nucleoside sequencing, enrichment, and measurement” (PEKING UNIVERSITY, priority 2019, dated 2025)",
  "experiment": "Half-life of DTT-6-A and hm^6A in aqueous solutions with different pH values",
  "type": "physicochemical",
  "conditions": "aqueous solution, neutral environment",
  "protocol": "In order to study whether the stability of product (DTT-6-A) produced by the reaction of hm^6A and DTT was improved compared with hm^6A, half-life of DTT-6-A in aqueous solutions with different pH values was measured.",
  "data": [
    {"smiles": "OCNc1ncnc2c1ncn2[C@@H]1O[C@H](CO)[C@@H](O)[C@H]1O", "note": "[hm^6A, N^6-hydroxymethyl adenine nucleoside]", "values": [
      {"measurement": "half-life", "result": 2, "unit": "h"}
    ]}
  ]
}
